# Measured values as given in US20130252814A1, “SYNERGISTIC HERBICIDAL COMPOSITION CONTAINING PENOXSULAM AND PRETILACHLOR” (DOW AGROSCIENCES LLC, priority 2011, published 2013).
# Test system: ECHCG - Echinochloa crus-galli (barnyardgrass)
# Assay: Preemergence herbicidal activity of mixtures under field conditions, seeded rice, field trial Taiwan
# Assay type: in vivo
# Protocol: A field trial was conducted in rice in Taiwan using standard herbicide small plot research methodology. Plot size was 1 meter (m) wide by 1 m long. There were 3 replicates per treatment. Soil type was medium texture. Rice was sown by hand direct dry seeding as per normal local cultural practices. The rice crop was grown using normal cultural practices for fertilization, watering, flooding and maintenance to ensure good growth of the crop and the weeds. Treatments were applied by backpack sprayer using compressed air at 30 pounds per square inch (psi) spray pressure. Spray tips were Flat Fan Teejet nozzles, delivering a spray volume of 300 liters per hectare (L/ha). For each treatment, the appropriate formulated product amount to treat the plot area, to achieve the desired application rate, based on unit area of application (hectare), was calculated, measured, and mixed in water prior to applying with the backpack sprayer. Treatments were rated as compared to the untreated control plots. The treated plots and control plots were rated blind at various intervals after application. Ratings were based of Percent (%) Visual weed control, where 0 corresponds to no injury and 100 corresponds to complete kill. Colby's equation was used to determine the herbicidal effects expected from the mixtures (Colby, S. R. Calculation of the synergistic and antagonistic response of herbicide combinations. Weeds 1967, 15, 20-22). The following equation was used to calculate the expected activity of mixtures containing two active ingredients, A and B: Expected=A+B−(A×B/100) A=observed efficacy of active ingredient A at the same concentration as used in the mixture and B=observed efficacy of active ingredient B at the same concentration as used in the mixture.
Compound,"% Control ECHCG Obs (7 days after preemergence application, pretilachlor 270 gr ai/ha)","% Control ECHCG Obs (7 days after preemergence application, pretilachlor 540 gr ai/ha)","% Control ECHCG Obs (28 days after preemergence application, pretilachlor 270 gr ai/ha)","% Control ECHCG Obs (28 days after preemergence application, pretilachlor 540 gr ai/ha)","% Control ECHCG Obs (7 days after preemergence application, penoxsulam 7.5 gr ai/ha)","% Control ECHCG Obs (7 days after preemergence application, penoxsulam 23 gr ai/ha)","% Control ECHCG Obs (28 days after preemergence application, penoxsulam 7.5 gr ai/ha)","% Control ECHCG Obs (28 days after preemergence application, penoxsulam 15 gr ai/ha)"
"CCCOCCN(C(=O)CCl)c1c(CC)cccc1CC [Pretilachlor, 2-chloro-N-(2,6-diethylphenyl)-N-(2-propoxyethyl)acetamide]",3%,3%,0%,0%,–,–,–,–
"COc1cnc(OC)n2nc(NS(=O)(=O)c3c(OCC(F)F)cccc3C(F)(F)F)nc12 [Penoxsulam, 2-(2,2-difluoroethoxy)-N-(5,8-dimethoxy-[1,2,4]triazolo[1,5-c]pyrimidin-2-yl)-6-(trifluoromethyl)benzenesulfonamide]",–,–,–,–,47%,95%,7%,80%
